# Columns and labels:
# Type in all cases: in vivo
# LOLMU = experiment: Herbicidal post-emergence action; settings: 80 g/ha, visual assessment after about three weeks, 100% = plants have died
# Protocol: (§1) 2. Herbicidal Post-Emergence Action
# (§2) • Seeds of monocotylidonous and dicotylidonous weed and crop plants are placed in sandy loam in wood fibre pots, covered with soil and cultivated in a greenhouse under good growth conditions. Two to three weeks after sowing, the test plants are treated at the one-leaf stage. The test compounds, formulated as wettable powders (WP), are then with a water application rate of 600 l/ha (converted), with 0.2% of wetting agent added, sprayed onto the green parts of the plants in different amounts. After the test plants have been kept in the greenhouse under optimum growth conditions for about three weeks, the effect of the preparations is assessed visually in comparison to untreated controls (herbicidal effect in percent: 100% effect=the plants have died, 0% effect=like control plants). Post-Emergence, 80 g/ha
# SETVI = experiment: Herbicidal post-emergence action; settings: visual assessment after about three weeks, 100% = plants have died; for herbicidal effect in percent, SETVI: 80 g/ha; for pest or weed control at 80 g/ha: 504 h, read-out: herbicidal effect in percent, SETVI
# Protocol: as §1, §2
# ECHCG = experiment: Herbicidal post-emergence action; settings: 80 g/ha, visual assessment after about three weeks, 100% = plants have died
# Protocol: as §1, §2
# ALOMY = experiment: Herbicidal post-emergence action; settings: 80 g/ha, visual assessment after about three weeks, 100% = plants have died
# Protocol: as §1, §2
# AVEFA = experiment: Herbicidal post-emergence action; settings: 80 g/ha, visual assessment after about three weeks, 100% = plants have died
# Protocol: as §1, §2
# [1] = test system: monocotylidonous and dicotylidonous weed and crop plants; experiment: Herbicidal pre-emergence action; settings: 320 g/ha, visual assessment after three weeks, 100% = plants have died; for herbicidal effect in percent, ALOMY: ALOMY = Alopecurus myosuroides; for herbicidal effect in percent, AVEFA: AVEFA = Avena fatua; for herbicidal effect in percent, ECHCG: ECHCG = Echinochloa crus-galli; for herbicidal effect in percent, LOLMU: LOLMU = Lolium multiflorum; for herbicidal effect in percent, SETVI: SETVI = Setaria viridis
# Source text: 1. Herbicidal Pre-Emergence Action
# • Seeds of monocotylidonous and dicotylidonous weed and crop plants are placed in sandy loam in wood fibre pots and covered with soil. The test compounds, formulated in the form of wettable powders (WP), are then, as an aqueous suspension with a water application rate of 600 l/ha (converted), with 0.2% of wetting agent added, applied to the surface of the covering soil in different amounts. • After the treatment, the pots are placed in a greenhouse and kept under good growth conditions for the test plants. The visual assessment of the emergence damage on the test plants is carried out after a trial period of three weeks by comparison with the untreated controls (herbicidal effect in percent: 100% effect=the plants have died, 0% effect=like control plants).
SMILES,"herbicidal effect in percent, LOLMU (LOLMU) [%]","herbicidal effect in percent, SETVI (SETVI) [%]","herbicidal effect in percent, ECHCG (ECHCG) [%]","herbicidal effect in percent, ALOMY (ALOMY) [%]","herbicidal effect in percent, AVEFA (AVEFA) [%]","herbicidal effect in percent, ALOMY [1] [%]","herbicidal effect in percent, AVEFA [1] [%]","herbicidal effect in percent, ECHCG [1] [%]","herbicidal effect in percent, LOLMU [1] [%]","herbicidal effect in percent, SETVI [1] [%]","herbicidal effect in percent, VIOTR ([1]; VIOTR = Viola tricolor) [%]",pest or weed control at 80 g/ha (SETVI) [%]
Cc1cc(C)c(C2C(=O)C3CC(C4OCCO4)CC3C2=O)c(C)c1 (mixture of isomers) [I-a-30],90,90,90,,,,,,,,,
Cc1cc(C)c(C2C(=O)C3CC(C=NOC(C)C)CC3C2=O)c(C)c1 (mixture of isomers) [I-a-31],90,100,90,90,80,,,,,,,
Cc1cc(C)c(C2C(=O)C3CC(C4OCCCO4)CC3C2=O)c(C)c1 (mixture of isomers) [I-a-32],90,90,80,,,,,,,,,
CCc1cc(C)cc(CC)c1C1C(=O)C2CC(C(C)=O)CC2C1=O (mixture of isomers) [I-a-33],100,90,100,100,100,,,,,,,
CCc1cc(C)cc(CC)c1C1C(=O)C2CC(C(C)=NOC)CC2C1=O (mixture of isomers) [I-a-34],100,90,100,100,,,,,,,,
CCc1cc(C)cc(CC)c1C1C(=O)C2CC(C(C)O)CC2C1=O (mixture of isomers) [I-a-41],100,100,100,100,100,,,,,,,
CCc1cc(C)cc(CC)c1C1C(=O)C2CC(CSC)CC2C1=O (mixture of isomers) [I-a-60],90,90,100,90,90,,,,,,,
CCc1cc(C)cc(CC)c1C1=C(OCc2ccccc2)C2CC(CBr)CC2C1=O (mixture of isomers) [I-a-61],90,90,90,,,,,,,,,
CCOC(=O)CC1CC2C(=O)C(c3c(CC)cc(C)cc3CC)=C(OCC)C2C1 (mixture of isomers) [I-a-81],80,90,80,80,,,,,,,,
CCc1cc(C)cc(CC)c1C1=C(OC(=O)C(C)(C)C)C2CC(C3OCCCO3)CC2C1=O (mixture of isomers) [I-b-3],100,,100,100,,100,90,100,100,100,90,
CCc1cc(C)cc(CC)c1C1=C(OC(=O)C(C)C)C2CC(COC(C)=O)CC2C1=O (mixture of isomers) [I-b-23],90,90,100,80,90,,,,,,,
CCc1cc(C)cc(CC)c1C1=C(OC(=O)OC(C)C)C2CC(C=NOC)CC2C1=O (mixture of isomers) [I-c-14],100,100,100,100,100,,,,,,,
CCOC(=O)OC1=C(c2c(CC)cc(C)cc2CC)C(=O)C2CC(COC(C)=O)CC12 (mixture of isomers) [I-c-15],90,80,90,,,,,,,,,
CCOC(=O)CC1CC2C(=O)C(c3c(CC)cc(C)cc3CC)=C(OC(=O)OCC)C2C1 (mixture of isomers) [I-c-16],,80,80,,,,,,,,,
CCOC(=O)OC1=C(c2c(CC)cc(C)cc2CC)C(=O)C2CC(C(C)=O)CC12 (mixture of isomers) [I-c-17],100,80,90,90,90,,,,,,,
CCOC(=O)OC1=C(c2c(CC)cc(C)cc2CC)C(=O)C2CC(C(C)=NOC)CC12 (mixture of isomers) [I-c-18],100,,90,100,80,,,,,,,
CCOC(=O)OC1=C(c2c(CC)cc(C)cc2CC)C(=O)C2CC(CCC#N)CC12 (mixture of isomers) [I-c-21],100,90,100,,100,,,,,,,
CCOC(=O)OC1=C(c2c(CC)cc(C)cc2CC)C(=O)C2CC(CCC(C)=NOC)CC12 (mixture of isomers) [I-c-24],100,100,100,90,80,,,,,,,
"CCc1cc(C)cc(CC)c1C1C(=O)C2CC(CCC(C)=NOC)CC2C1=O (racemic) [I-a-42, 2-(2,6-diethyl-4-methylphenyl)-5-[3-methoxyiminobutyl]-tetrahydropentalene-1,3-dione]",100,,100,90,100,,,,,,,100
"CCc1cc(C)cc(CC)c1C1C(=O)C2CC(CCC(C)=O)CC2C1=O (centres unmarked) [I-a-39, 2-(2,6-diethyl-4-methylphenyl)-5-(3-oxobutyl)-tetrahydropentalene-1,3-dione]",100,,100,100,,,,,,,,100
"CCc1cc(C)cc(CC)c1C1C(=O)C2CC(C=O)CC2C1OC(=O)C(C)(C)C (centres unmarked) [I-b-2, 2-(2,6-diethyl-4-methylphenyl)-5-formyl-3-oxooctahydropentalen-1-yl 2,2-dimethylpropanoate]",,,100,,,80,80,100,100,90,,100

# From patent US9101133B2, “Phenyl-substituted bicyclooctane-1,3-dione-derivatives” (BAYER INTELLECTUAL PROPERTY GMBH, priority 2010, dated 2015)
